From ChEMBL document CHEMBL1201862, “PubChem BioAssay data set” (2004)
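Five compound concentrations were applied to cells in 96-well plates for 48 hours; endpoints were derived by simple linear interpolation of the resulting dose-response curve. Here, GI50 denotes the concentration required for 50% inhibition of growth.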 Calls of active or inactive are those of the source. Rule as the data show it: active = GI50 up to about 1.1 µM and inactive = higher.

Tests used:
Experiment in all cases: NCI tumour cell line growth inhibition, 48 h
[1] = tested on: SNB-75
[2] = tested on: DU-145
[3] = tested on: M14
[4] = tested on: UO-31
[5] = tested on: HOP-62
[6] = tested on: SF-295
[7] = tested on: SK-MEL-28
[8] = tested on: Malme-3M
[9] = tested on: A498
[10] = tested on: HCT-116
[11] = tested on: SF-268
[12] = tested on: 786-0
[13] = tested on: HCC 2998
[14] = tested on: UACC-62
[15] = tested on: SW-620
[16] = tested on: NCI-H23
[17] = tested on: OVCAR-4
[18] = tested on: OVCAR-3
[19] = tested on: HCT-15
[20] = tested on: MCF7
[21] = tested on: RPMI-8226
[22] = tested on: SK-MEL-2
[23] = tested on: HL-60
[24] = tested on: SK-MEL-5
[25] = tested on: CAKI-1
[26] = tested on: NCI/ADR-RES
[27] = tested on: MDA-MB-231
[28] = tested on: Hs-578T
[29] = tested on: CCRF-CEM
[30] = tested on: OVCAR-5
[31] = tested on: K562
[32] = tested on: U-251
[33] = tested on: NCI-H522
[34] = tested on: MDA-MB-435
[35] = tested on: ACHN
[36] = tested on: SN12C
[37] = tested on: HOP-92
[38] = tested on: HT-29
[39] = tested on: SK-OV-3
[40] = tested on: KM12
[41] = tested on: BT-549
[42] = tested on: NCI-H226
[43] = tested on: PC-3
[44] = tested on: SNB-19
[45] = tested on: RXF 393
[46] = tested on: MDA-N
[47] = tested on: SF-539
[48] = tested on: A549
[49] = tested on: T47D
[50] = tested on: TK-10
[51] = tested on: UACC-257
[52] = tested on: OVCAR-8
[53] = tested on: LOX IMVI
[54] = tested on: COLO 205
[55] = tested on: NCI-H460
[56] = tested on: IGROV-1

With `O=C(NCCN(CCNC(=O)c1cccc(=O)n1O)CCN(CCNC(=O)c1cccc(=O)n1O)CCNC(=O)c1cccc(=O)n1O)c1cccc(=O)n1O` the GI50 [1] was > 100 µM (inactive), the GI50 [2] was > 100 µM (inactive) and the GI50 [3] was > 100 µM (inactive). The GI50 [4] was > 100 µM (inactive), the GI50 [5] was > 100 µM (inactive) and the GI50 [6] was > 100 µM (inactive). The GI50 [7] was > 100 µM (inactive), the GI50 [8] was 60.8 µM (inactive) and the GI50 [9] was > 100 µM (inactive). The GI50 [10] was > 100 µM (inactive), the GI50 [11] was > 100 µM (inactive) and the GI50 [12] was > 100 µM (inactive). For the same molecule, the GI50 [13] was > 100 µM (inactive), the GI50 [14] was > 100 µM (inactive) and the GI50 [15] was > 100 µM (inactive). The GI50 [16] was > 100 µM (inactive), the GI50 [17] was > 100 µM (inactive) and the GI50 [18] was > 100 µM (inactive). For the same molecule, the GI50 [19] was greater than 100 µM, the GI50 [20] was > 100 µM (inactive) and the GI50 [21] was > 100 µM (inactive). The GI50 [22] was > 100 µM (inactive), the GI50 [23] was 44.2 µM (inactive) and the GI50 [24] was > 100 µM (inactive). The GI50 [25] was > 100 µM (inactive), the GI50 [26] was > 100 µM (inactive) and the GI50 [27] was > 100 µM (inactive). The GI50 [28] was > 100 µM (inactive), the GI50 [29] was > 100 µM (inactive) and the GI50 [30] was > 100 µM (inactive). For the same molecule, the GI50 [31] was > 100 µM (inactive), the GI50 [32] was > 100 µM (inactive) and the GI50 [33] was > 100 µM (inactive). The GI50 [34] was > 100 µM (inactive), the GI50 [35] was > 100 µM (inactive) and the GI50 [36] was > 100 µM (inactive). The GI50 [37] was > 100 µM (inactive), the GI50 [38] was 89.9 µM (inactive) and the GI50 [39] was > 100 µM (inactive). For the same molecule, the GI50 [40] was > 100 µM (inactive), the GI50 [41] was > 100 µM (inactive) and the GI50 [42] was > 100 µM (inactive). The GI50 [43] was > 100 µM (inactive), the GI50 [44] was > 100 µM (inactive) and the GI50 [45] was > 100 µM (inactive). For the same molecule, the GI50 [46] was > 100 µM (inactive), the GI50 [47] was > 100 µM (inactive) and the GI50 [48] was > 100 µM (inactive). For the same molecule, the GI50 [49] was > 100 µM (inactive), the GI50 [50] was > 100 µM (inactive) and the GI50 [51] was > 100 µM (inactive). The GI50 [52] was > 100 µM (inactive), the GI50 [53] was > 100 µM (inactive) and the GI50 [54] was > 100 µM (inactive). For the same molecule, the GI50 [55] was > 100 µM (inactive) and the GI50 [56] was > 100 µM (inactive).
